Experiments:
[1] = biological target: T1, human H1 receptor (Homo sapiens, UniProt P35367); test: Histamine H1 functional antagonist assay: determination of functional pKi values (FLIPR); assay type: cell-based; conditions: CHO cells expressing human H1 receptor, histamine at EC80, read-out: average pKi (pKb) at H1 (converted)
T1 construct: expressed in transfected cells
Protocol: The human H1 receptor is cloned using known procedures described in the literature [Biochem. Biophys. Res. Commun., 201(2):894 (1994)]. Chinese hamster ovary (CHO) cells stably expressing the human H1 receptor are generated according to known procedures described in the literature [Br. J. Pharmacol., 117(6):1071 (1996)]. The histamine H1 cell line is seeded into non-coated black-walled clear bottom 384-well tissue culture plates in alpha minimum essential medium (Gibco/Invitrogen, cat no. 22561-021), supplemented with 10′)/0 dialysed foetal calf serum (Gibco/Invitrogen cat no. 12480-021) and 2 mM L-glutamine (Gibco/Invitrogen cat no 25030-024) and is maintained overnight at 5% CO2, 37° C. Excess medium is removed from each well to leave 10 μl. 30 μl loading dye (250 μM Brilliant Black, 2 μM Fluo-4 diluted in Tyrodes buffer+probenecid (145 mM NaCl, 2.5 mM KCl, 10 mM HEPES, 10 mM D-glucose, 1.2 mM MgCl2, 1.5 mM CaCl2, 2.5 mM probenecid, pH adjusted to 7.40 with NaOH 1.0 M)) is added to each well and the plates are incubated for 60 min at 5% CO2, 37° C. 10 μl of test compound, diluted to the required concentration in Tyrodes buffer+probenecid (or 10 μl Tyrodes buffer+probenecid as a control) is added to each well and the plate is incubated for 30 min at 37° C., 5% CO2. The plates are then placed into a FLIPR™(Molecular Devices, UK) to monitor cell fluorescence (λex=488 nm, λEM=540 nm) in the manner described in Sullivan et al., (In: Lambert DG (ed.), Calcium Signaling Protocols, New Jersey: Humana Press, 1999, 125-136) before and after the addition of 10 μl histamine at a concentration that results in the final assay concentration of histamine being EC80. Functional antagonism is indicated by a suppression of histamine induced increase in fluorescence, as measured by the FLIPR™ system (Molecular Devices). By means of concentration effect curves, functional affinities are determined using standard pharmacological mathematical analysis.

[2] = biological target: T2, histamine H3 receptor (Homo sapiens, UniProt Q9Y5N1); test: Histamine H3 functional antagonist assay (GTPγS, membranes); assay type: biochemical; conditions: CHO K1 membranes, [35S]-GTPγS, histamine at EC80; read-out: average pKi (pKb) at H3 (converted)
T2 construct: expressed in transfected cells; host or cells: CHO K1 cells with pSwitch/pGeneH3 (GeneSwitch, mifepristone-induced), clone 3H3; membrane preparation
Protocol: The histamine H3 cDNA is isolated from its holding vector, pcDNA3.1 TOPO (InVitrogen), by restriction digestion of plasmid DNA with the enzymes BamH1 and Not-1 and is ligated into the inducible expression vector pGene (InVitrogen) digested with the same enzymes. The GeneSwitchTM system (a system where in transgene expression is switched off in the absence of an inducer and switched on in the presence of an inducer) is performed as described in U.S. Pat. Nos. 5,364,791; 5,874,534; and 5,935,934. Ligated DNA is transformed into competent DH5α E. coli host bacterial cells and is plated onto Luria Broth (LB) agar containing ZeocinTM (an antibiotic which allows the selection of cells expressing the sh ble gene which is present on pGene and pSwitch) at 50 μgml^-1. Colonies containing the re-ligated plasmid are identified by restriction analysis. DNA for transfection into mammalian cells is prepared from 250 ml cultures of the host bacterium containing the […]3 plasmid and is isolated using a DNA preparation kit (Qiagen Midi-Prep) as per manufacturers guidelines (Qiagen). CHO K1 cells previously transfected with the pSwitch regulatory plasmid (InVitrogen) are seeded at 2×10^6 cells per T75 flask in Complete Medium, containing Hams F12 (GIBCOBRL, Life Technologies) medium supplemented with 10% v/v dialysed foetal bovine serum, L-glutamine, and hygromycin (100 μgml^-1), 24 h prior to use. Plasmid DNA is transfected into the cells using Lipofectamine plus according to the manufacturer's guidelines (InVitrogen). 48 h post transfection, cells are placed into complete medium supplemented with 500 μgml^-1 ZeocinTM. 10-14 days post selection, 10 nM Mifepristone (InVitrogen) is added to the culture medium to induce the expression of the receptor. 18 h post induction, cells are detached from the flask using ethylenediamine tetra-acetic acid (EDTA; 1:5000; InVitrogen), following several washes with PBS, pH 7.4 and are resuspended in Sorting Medium containing Minimum Essential Medium (MEM), without phenol red, and are supplemented with Earles salts and 3% Foetal Clone II (Hyclone). Approximately 1×10^7 cells are examined for receptor expression by staining with a rabbit polyclonal antibody, 4a, raised against the N-terminal domain of the histamine H3 receptor, are incubated on ice for 60 min, followed by two washes in sorting medium. Receptor bound antibody is detected by incubation of the cells for 60 min on ice with a goat anti rabbit antibody, conjugated with Alexa 488 fluorescence marker (Molecular Probes). Following two further washes with Sorting Medium, cells are filtered through a 50 μm FilconTM (BD Biosciences) and then are analysed on a FACS Vantage SE Flow Cytometer fitted with an Automatic Cell Deposition Unit. Control cells are non-induced cells treated in an analogous manner. Positively stained cells are sorted as single cells into 96-well plates, containing Complete Medium containing 500 μgml^-1 ZeocinTM and are allowed to expand before reanalysis for receptor expression via antibody and ligand binding studies. One clone, 3H3, is selected for membrane preparation. All steps of the protocol are carried out at 4° C. and with pre-cooled reagents. The cell pellet is resuspended in 10 volumes of homogenisation buffer (50 mM N-2-hydroxyethylpiperazine-N'-2-ethanesulfonic acid (HEPES), 1 mM ethylenediamine tetra-acetic acid (EDTA), pH 7.4 with KOH, supplemented with 10^-6 M leupeptin (acetyl-leucyl-leucyl-arginal; Sigma L2884), 25 μgml^-1 bacitracin (Sigma B0125), 1 mM phenylmethylsulfonyl fluoride (PMSF) and 2×10^-6 M pepstain A (Sigma)). The cells are then homogenised by 2×15 sec bursts in a 1 L glass Waring blender, followed by centrifugation at 500 g for 20 min. The supernatant is then spun at 48,000 g for 30 min. The pellet is resuspended in homogenisation buffer (4× the volume of the original cell pellet) by vortexing for 5 sec, followed by homogenisation in a Dounce homogeniser (10-15 strokes). […]

T1 sequence (P35367 whole entry): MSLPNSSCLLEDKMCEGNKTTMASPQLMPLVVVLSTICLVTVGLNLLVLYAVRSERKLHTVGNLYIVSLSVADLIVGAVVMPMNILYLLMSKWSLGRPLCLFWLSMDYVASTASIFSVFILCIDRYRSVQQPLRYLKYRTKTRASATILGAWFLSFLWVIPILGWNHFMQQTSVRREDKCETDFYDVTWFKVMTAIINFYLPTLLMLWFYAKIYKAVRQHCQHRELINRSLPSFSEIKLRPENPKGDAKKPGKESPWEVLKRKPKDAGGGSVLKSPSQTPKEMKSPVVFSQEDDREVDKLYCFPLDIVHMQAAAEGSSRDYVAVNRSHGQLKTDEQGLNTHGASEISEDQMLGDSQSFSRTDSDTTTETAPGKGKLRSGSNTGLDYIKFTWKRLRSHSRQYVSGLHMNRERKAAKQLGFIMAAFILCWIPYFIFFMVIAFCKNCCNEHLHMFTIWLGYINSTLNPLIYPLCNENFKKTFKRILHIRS
T2 sequence (Q9Y5N1 whole entry, species assumed): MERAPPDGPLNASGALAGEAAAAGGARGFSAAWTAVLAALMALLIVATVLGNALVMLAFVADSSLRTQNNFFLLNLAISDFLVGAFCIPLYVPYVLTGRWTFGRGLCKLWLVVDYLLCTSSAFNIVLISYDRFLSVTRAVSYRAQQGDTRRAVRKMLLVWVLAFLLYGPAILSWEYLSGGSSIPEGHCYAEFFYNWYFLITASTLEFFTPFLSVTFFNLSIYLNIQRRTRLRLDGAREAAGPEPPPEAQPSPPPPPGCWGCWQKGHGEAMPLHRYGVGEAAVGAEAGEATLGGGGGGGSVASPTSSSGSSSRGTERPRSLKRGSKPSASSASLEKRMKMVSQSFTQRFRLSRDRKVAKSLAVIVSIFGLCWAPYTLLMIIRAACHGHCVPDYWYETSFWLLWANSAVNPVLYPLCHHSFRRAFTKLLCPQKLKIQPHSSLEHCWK

Row | Compound | Ki [1] [nM] | Ki [2] [nM]
1 | CCCCCCc1cc(OC2CCN(C[C@H]3CC[C@H](C(=O)NCCC(C)C)CC3)CC2)c2ncccc2c1 [Example 50, trans-4-({4-[(6-hexyl-8-quinolinyl)oxy]-1-piperidinyl}methyl)-N-(3-methylbutyl) cyclohexane carboxamide] | < 100 | > 316
2 | CCCCCCc1cc(OC2CCN(C[C@H]3CC[C@H](C(=O)N4CCCCC4)CC3)CC2)c2ncccc2c1 [Example 51, 6-hexyl-8-[(1-{[trans-4-(1-piperidinylcarbonyl)cyclohexyl]methyl}-4-piperidinyl)oxy]quinoline] | < 100 | > 316
3 | CCCCCCc1cc(OC2CCN(C[C@H]3CC[C@H](C(=O)NCC(C)(C)C)CC3)CC2)c2ncccc2c1 [Example 52, trans-N-(2,2-dimethylpropyl)-4-({4-[(6-hexyl-8-quinolinyl)oxy]-1-piperidinyl}methyl)cyclohexane carboxamide] | < 100 | > 316
4 | CCCCCCc1cc(OC2CCN(C[C@H]3CC[C@H](C(=O)N(CC)CC)CC3)CC2)c2ncccc2c1 [Example 53, trans-N,N-diethyl-4-({4-[(6-hexyl-8-quinolinyl)oxy]-1-piperidinyl}methyl) cyclohexane carboxamide] | < 100 | > 316
5 | CCCCCCc1cc(OC2CCN(C[C@H]3CC[C@H](C(=O)N4CCCC4)CC3)CC2)c2ncccc2c1 [Example 54, 6-hexyl-8-[(1-{[trans-4-(1-pyrrolidinylcarbonyl)cyclohexyl]methyl}-4-piperidinyl)oxy]quinoline] | < 100 | > 316
6 | CCCCCCc1cc(OC2CCN(C[C@H]3CC[C@H](C(=O)NCCC)CC3)CC2)c2ncccc2c1 [Example 55, trans-4-({4-[(6-hexyl-8-quinolinyl)oxy]-1-piperidinyl}methyl)-N-propylcyclohexane carboxamide] | < 100 | > 316
7 | CCCCCCc1cc(OC2CCN(C[C@H]3CC[C@H](C(=O)NC(C)C)CC3)CC2)c2ncccc2c1 [Example 56, trans-4-({4-[(6-hexyl-8-quinolinyl)oxy]-1-piperidinyl}methyl)-N-(1-methylethyl) cyclohexane carboxamide] | < 10 | > 316
8 | CCCCCCc1cc(OC2CCN(C[C@H]3CC[C@H](C(=O)N4CCOCC4)CC3)CC2)c2ncccc2c1 [Example 57, 6-hexyl-8-[(1-{[trans-4-(4-morpholinylcarbonyl)cyclohexyl]methyl}-4-piperidinyl)oxy]quinoline] | < 100 | > 316
9 | CCCCCCc1cc(OC2CCN(C[C@H]3CC[C@H](C(=O)NCCCOC)CC3)CC2)c2ncccc2c1 [Example 58, trans-4-({4-[(6-hexyl-8-quinolinyl)oxy]-1-piperidinyl}methyl)-N-[3-(methyloxy)propyl]cyclohexane carboxamide] | < 100 | > 316
10 | CCCCc1cc(OC2CCN(C[C@H]3CC[C@H](C(=O)Nc4ccc(C)cc4)CC3)CC2)c2ncccc2c1 [Example 59, trans-4-({4-[(6-butyl-8-quinolinyl)oxy]-1-piperidinyl}methyl)-N-(4-methylphenyl) cyclohexane carboxamide] | < 100 | > 316
11 | CCCCc1cc(OC2CCN(C[C@H]3CC[C@H](C(=O)NCc4ccc(C)cc4)CC3)CC2)c2ncccc2c1 [Example 60, trans-4-({4-[(6-butyl-8-quinolinyl)oxy]-1-piperidinyl}methyl)-N-[(4-methylphenyl)methyl]cyclohexane carboxamide] | < 100 | > 316
12 | CCCCc1cc(OC2CCN(C[C@H]3CC[C@H](C(=O)NCCC(C)C)CC3)CC2)c2ncccc2c1 [Example 61, trans-4-({4-[(6-butyl-8-quinolinyl)oxy]-1-piperidinyl}methyl)-N-(3-methylbutyl) cyclohexane carboxamide] | < 10 | > 316
13 | CCCCc1cc(OC2CCN(C[C@H]3CC[C@H](C(=O)N4CCCC4)CC3)CC2)c2ncccc2c1 [Example 62, 6-butyl-8-[(1-{[trans-4-(1-pyrrolidinylcarbonyl)cyclohexyl]methyl}-4-piperidinyl)oxy]quinoline] | < 10 | > 316
14 | CCCCc1cc(OC2CCN(C[C@H]3CC[C@H](C(=O)N4CCOCC4)CC3)CC2)c2ncccc2c1 [Example 63, 6-butyl-8-[(1-{[trans-4-(4-morpholinylcarbonyl)cyclohexyl]methyl}-4-piperidinyl)oxy]quinoline] | < 100 | > 316
15 | CCCCc1cc(OC2CCN(CCCCNC(=O)CC)CC2)c2ncccc2c1 [Example 64, N-(4-{4-[(6-Butyl-8-quinolinyl)oxy]-1-piperidinyl}butyl)propanamide] | < 10 | > 316
16 | CCCCc1cc(OC2CCN(CCCCNC(=O)CCC)CC2)c2ncccc2c1 [Example 65, N-(4-{4-[(6-butyl-8-quinolinyl)oxy]-1-piperidinyl}butyl) butanamide] | < 10 | > 316
17 | CCCCc1cc(OC2CCN(CCCCNC(=O)C(C)C)CC2)c2ncccc2c1 [Example 66, N-(4-{4-[(6-butyl-8-quinolinyl)oxy]-1-piperidinyl}butyl)-2-methylpropanamide] | < 100 | > 316
18 | CCCCc1cc(OC2CCN(CCCCNC(=O)C(C)(C)C)CC2)c2ncccc2c1 [Example 67, N-(4-{4-[(6-butyl-8-quinolinyl)oxy]-1-piperidinyl}butyl)-2,2-dimethyl propanamide] | < 10 | > 316
19 | CCCCc1cc(OC2CCN(CCCNC(=O)C(C)C)CC2)c2ncccc2c1 [Example 68, N-(3-{4-[(6-butyl-8-quinolinyl)oxy]-1-piperidinyl}propyl)-2-methyl propanamide] | < 10 | > 316
